According to PMC10638401, “Mannich-type modifications of (−)-cannabidiol and (−)-cannabigerol leading to new, bioactive derivatives” (Scientific Reports, 2023):
Values after ≈ are worked out from the molar mass of the structure shown.

Columns and labels:
SARS-CoV-2 [1] = experiment: SARS-CoV-2 cytopathic effect (CPE) inhibition assay in Vero E6 cells (XTT); format: cell-based; settings: Severe acute respiratory syndrome coronavirus 2, Vero C1008, 72 h; Vero E6 cells, 3 days post-infection, XTT
[2] = tested on: Klebsiella pneumoniae carbapenemase-producing bacteria; experiment: Antibacterial effect, broth micro dilution
Protocol: (§1) According to CLSI guideline the Minimal Inhibitory Concentrations (MICs) of the prepared compounds were determined with the broth micro dilution method. After an overnight growth on 5% bovine blood agar plates at 35 °C bacterial strains were suspended in physiological saline in order to reach the density of 0.5 McFarland for inoculation. Stock solutions containing different concentrations of the substances were prepared in DMSO and H2O (1:1). These were twofold serially diluted from 256 to 0.5 mg/l in Mueller–Hinton broth, and 100 ml of each dilution was inoculated with 10 ml of each bacterial suspension.

[3] = tested on: MRSA (Methicillin Resistant Staphylococcus aureus); experiment: MIC, broth micro dilution; settings: Staphylococcus aureus
Protocol: as §1

Pseudomonas aeruginosa = experiment: Antibacterial effect, broth micro dilution; format: cell-based
[4] = tested on: Enterococcus faecalis 15 376 VanA; experiment: MIC, broth micro dilution; settings: Enterococcus faecalis, 15376VANA
[5] = tested on: Staphylococcus epidermidis mecA; experiment: MIC, broth micro dilution; settings: Staphylococcus epidermidis
SARS-CoV-2 [6] = experiment: SARS-CoV-2 immunofluorescence assay (nucleoprotein expression) in Vero E6 cells; format: cell-based; settings: Severe acute respiratory syndrome coronavirus 2, Vero C1008, 72 h, three days
Protocol: CBD and CBG derivatives were further tested for their ability to inhibit SARS-CoV-2 replication in Vero E6 cells. Initially, the inhibition of virus-induced cytopathic effect was measured by addition of twofold serial dilutions of each derivative to the cells, followed by the infection with SARS-CoV-2 and determination of the cell viability 3 days post-infection by XTT assay. Concurrently, the cytotoxicity of each compound was assessed from identical dilutions in uninfected Vero E6 cells. To confirm anti-SARS-CoV-2 activity in the CPE inhibition assay, selected compounds were tested in immunofluorescence assay, where inhibition of SARS-CoV-2 replication was monitored as reduction in nucleoprotein expression using fluorescence microscope. […] Among the CBG derivatives, we can find quite cytotoxic and non-cytotoxic derivatives as well.
For CPE-based assay, two-fold fold serial dilutions of compounds from 100 µM were added in triplicate in a 384-well plate with 5000 Vero E6 cells in DMEM medium with 2% FBS, 100 U of penicillin/ml and 100 µg of streptomycin/ml (all Merck). After 1 h incubation SARS-CoV-2 (strain hCoV-19/Czech Republic/NRL_6632_2/2020) was added at multiplicity of infection […]. Following three days incubation at 37 °C in 5% CO2 the cell viability was determined by addition of XTT solution (Sigma-Aldrich) for 4 h and the absorbance was measured using EnVision plate reader (Perkin Elmer). Drug concentrations required to reduce viral cytopathic effect by 50% (EC50) were calculated using nonlinear regression from plots of percentage cell viability versus log10 drug concentration using GraphPad Prism (version 9.0.0, GraphPad Software, LLC). For immunofluorescence assay, two-fold fold serial dilutions of compounds from 100 µM were added in triplicate in 96-well plate with 15,000 Vero E6 cells plated day before in the same medium as above. After 1 h incubation, SARS-CoV-2 was added at multiplicity of infection 0.05 IU/cell. After three days of incubation, cells were fixed with 4% paraformaldehyde, permeabilized with 0.2% Triton X100 (both Merck), washed, incubated with anti-SARS-CoV-2antibody (mouse monoclonal antibody detecting SARS-CoV-2 nucleoprotein) for 2 h at room temperature. Followed by 1.5 h incubation with Cy3-labeled donkey anti-mouse IgG (Jackson ImmunoResearch Europe) and documented using fluorescence microscope with camera (Olympus). Images were processed in ImageJ software (NIH) and compound concentrations required to reduce fluorescence by 50% (EC50s) were calculated from plots of percentage of fluorescent cells versus log10 drug concentration using nonlinear regression analysis as above. Cytotoxicity was evaluated by incubating with the same two-fold serial dilutions of each compound as above with Vero E6 cells in 384-well plate.

in vitro = settings: African green monkey
Escherichia coli = experiment: Antibacterial effect, broth micro dilution; format: cell-based
[7] = tested on: multidrug-resistant Acinetobacter baumannii; experiment: Antibacterial effect, broth micro dilution
Protocol: as §1

SZ95 sebocytes = experiment: Nile Red-assay, arachidonic acid-induced lipogenesis; format: cell-based, human; settings: 50 μM arachidonic acid, 48 h
Protocol: Human immortalized SZ95 sebocytes, originated from human facial sebaceous glands[50] were provided by prof. Christos C. Zouboulis, and were cultured in Sebomed® Basal Medium (Cat. No. F8205; Sigma-Aldrich) supplemented with 10% FBS (Gibco-Thermo Fisher Scientific), 1 mM CaCl2 (Cat. No. C7902; Sigma-Aldrich), 5 ng/ml human epidermal growth factor (Cat. No. E9644; Sigma-Aldrich), and MycoZap™ Plus-CL (1:500; Lonza). The medium was changed every other day, and cells were subcultured at 60–70% confluence.
For quantitative measurement of sebaceous (neutral) lipid content, SZ95 sebocytes (20,000 cells/well) were cultured in 96-well “black well/clear bottom” plates (Cat. No. 655090; Greiner Bio-One, Frickenhausen, Germany), and were treated with compounds in the presence or absence of arachidonic acid (AA; Cat. No. 90010; Cayman Chemical Company, Ann Arbor, MI, USA) or its vehicle (absolute ethanol) as indicated. Subsequently, supernatants were discarded, cells were washed twice with phosphate-buffered saline (PBS; 115 mM NaCl, 20 mM Na2HPO4, pH 7.4; all from Sigma-Aldrich), and 100 µl of a 1 µg/ml Nile Red (Cat. No. N3013; Sigma-Aldrich) solution in PBS was added to each well. The plates were then incubated at 37 °C for 30 min, and fluorescence was measured on FlexStation 3 multimode microplate reader (Molecular Devices, San Francisco, CA, USA). Results, measured in relative fluorescence units, are expressed as percentage of the vehicle (absolute ethanol; Cat. No. 20821.296; VWR International)-treated control regarded as 100%, using 485 nm excitation and 565 nm emission wavelengths.

Row | Compound | EC50 (SARS-CoV-2 [1]) [µM] | antibacterial effect (no effect up to) [2] [µg/mL] | MIC [3] [µg/mL] | antibacterial effect (no effect up to) (Pseudomonas aeruginosa) [µg/mL] | MIC [4] [µg/mL] | MIC [5] [µg/mL] | EC50 (SARS-CoV-2 [6]) [µM] | CC50 (in vitro) [µM] | antibacterial effect (no effect up to) (Escherichia coli) [µg/mL] | antibacterial effect (no effect up to) [7] [µg/mL] | effect on the lipogenic effect of arachidonic acid (AA) (SZ95 sebocytes)
1 | C=C(C)[C@@H]1CCC(C)=C[C@H]1c1c(O)cc(CCCCC)cc1O [Compound 1, (−)-Cannabidiol] | 5.1 ± 0.99 | > 256 | 4 (≈ 12.7 µM) | > 256 | 4 (≈ 12.7 µM) | 8 (≈ 25.4 µM) | 8.3 ± 0.28 | 12.1 ± 1.2 | > 256 | > 256 | completely prevent the lipogenic effect
2 | C=C(C)[C@@H]1CCC(C)=C[C@H]1c1c(O)cc(CCCCC)c(COCC)c1O [Compound 9] | 22 ± 3 |  | > 256 |  | 128 (≈ 344 µM) | > 256 | ~94 | > 100 |  |  | mimic this lipostatic effect
